For seven compounds, GI50 and TGI results are on record in PubChem BioAssay (NCI).

Assay in all cases: DTP human tumour cell line panel, 48 h
Assay [1] has as its system UO-31 renal.
The subject of assay [2] is CCRF-CEM leukemia.
Assay [3] deals with T-47D breast.
Assay [4] concerns SR leukemia.
The test system of assay [5] is HL-60(TB) leukemia.
Assay [6] has as its system NCI-H226 lung.
Assay [7] concerns DU-145 prostate.
Assay [8] deals with M14 melanoma.
Assay [9] relates to KM12 colon.
In assay [10] the test system is SF-295 CNS.

“And” between values parts separate entries of the source, which are not always exact repeats. Equal values may be shown once.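 The compound was tested at five concentrations on cells cultured in 96-well plates, with a 48-hour exposure period. GI50 is the concentration that inhibits growth by half. TGI: total growth inhibition.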 Where only a bound is given, the exact number is not on record here.

For the compound `Cn1cc(-c2csc(-c3ccccc3)n2)c2cccnc21`, the GI50 (in general, the concentration giving 50% growth inhibition) is 11 µM in [1]; 22.8 µM in assay [2]; 6.04 µM in [3]; 9.24 µM in assay [4]; 9.4 µM in assay [5]; 16.6 µM in assay [6]. For the same compound, the GI50 in assay [7] was 15 µM; in assay [8], 13.9 µM; in assay [9], 12.5 µM; in assay [10] it was 15 µM. For the same compound, the TGI (as a rule, the concentration at which net growth stops) was 28.3 µM in assay [1]; greater than 100 µM in [2]; 28.5 µM in assay [3]; 62.4 µM in [4]; 34 µM in assay [5]; 42.4 µM in [6]. The TGI in assay [7] turned out to be 29.3 µM; in [8], 27.8 µM; in assay [9] it was 25 µM; in assay [10], 33.7 µM.
Turning to `CC1(C)N=C(N)N=C(N)N1c1ccc(OCC(=O)Nc2ccc(S(=O)(=O)F)cc2Cl)c(Cl)c1`, the GI50 in assay [1] was 44.7 µM; in assay [2], 0.277 µM; in [3] it was greater than 100 µM; in [4], 0.82 µM; in assay [5], 1.46 µM; in assay [6] it was 57.8 µM. In addition, the GI50 in [7] is 5.69 µM; in assay [8], 5.01 µM; in assay [9], 4.63 µM; in [10] it was 5.23 µM. Besides, the TGI in assay [1], in assay [2], in [3], in assay [4], in [5] and in assay [6] was greater than 100 µM in each case. The TGI in assay [7], in [8], in assay [9] and in assay [10] was greater than 100 µM each time.
Turning to `NS(=O)(=O)c1ccc(N=Nc2c(O)[nH]c3ccc(C(=O)NCCCn4ccnc4)cc23)cc1`, the GI50 in [1] was greater than 25 µM; in assay [2], greater than 18.5 µM; in [3], greater than 25 µM; in assay [4], greater than 25 µM; in assay [5] it was greater than 25 µM; in assay [6] it was greater than 25 µM. In addition, the GI50 in assay [7], in assay [8], in [9] and in assay [10] was greater than 25 µM in each case. Further, the TGI in assay [1], in assay [2], in assay [3], in assay [4], in [5] and in [6] was greater than 25 µM throughout. The TGI in assay [7], in assay [8], in assay [9] and in assay [10] was greater than 25 µM throughout.
In the case of `CN1C(=O)C(N=Nc2ccc([N+](=O)[O-])cc2)SC1=S` (stereo not given), the GI50 in assay [1] is 1.26 µM and 3.55 µM; in assay [2] it was 6.51 µM; in assay [3] it was 2.71 µM and 4.26 µM; in assay [4] it was 2.66 µM and 4.47 µM; in assay [5] it was 0.678 µM and 2.84 µM; in assay [6] it was 21 µM and 18 µM. Further, the GI50 in [7] was 7.11 µM and 22.1 µM; in [8], 7.61 µM and 19.2 µM; in assay [9] it was 1.81 µM and 2.53 µM; in [10], 1.62 µM and 3.04 µM. In addition, the TGI was 8.82 µM and 74.7 µM in [1]; greater than 100 µM in assay [2]; > 100 µM and 47.5 µM in assay [3]; greater than 100 µM in assay [4]; 8.68 µM and 8.38 µM in assay [5]; greater than 100 µM in assay [6]. For the same compound, the TGI in assay [7] is 41.6 µM and > 100 µM; in [8], greater than 100 µM; in [9], 17.4 µM and > 100 µM; in assay [10], 6.27 µM and 24.9 µM.
On to `O=C(O)CN1C(=O)OC(c2ccccc2)C1=O` (stereo not given), for which the TGI in assay [1], in [2], in assay [3], in assay [4], in assay [5] and in assay [6] was greater than 100 µM each time. The TGI in assay [7], in [8], in [9] and in [10] was greater than 100 µM throughout.
In the case of `COc1ccc(OC)c(C2=C(c3cn(C)c4ccccc34)C(=O)NC2=O)c1`, the GI50 is greater than 25 µM in assay [1]; greater than 25 µM in [2]; greater than 25 µM in assay [3]; 16.1 µM in assay [4]; greater than 18.8 µM in assay [5]; greater than 25 µM in [6]. Also, the GI50 in assay [7] was greater than 25 µM; in assay [8], greater than 25 µM; in assay [9] it was 22.4 µM; in assay [10], greater than 22.7 µM. The TGI in assay [1], in [2], in assay [3], in assay [4], in assay [5] and in assay [6] was greater than 25 µM each time. Further, the TGI in assay [7], in assay [8], in assay [9] and in [10] was greater than 25 µM in each case.
`CS(=O)(=O)Nc1cc(-c2ccc3ncc(C#N)c(Nc4ccc(F)c(Cl)c4)c3c2)cnc1Cl`: the GI50 in assay [1] was 0.125 µM; in [2] it was 0.0911 µM; in [3], 0.0351 µM; in assay [4], 0.161 µM; in [5], 0.12 µM; in [6] it was 0.258 µM. Also, the GI50 is 0.242 µM in assay [7], 0.193 µM in assay [8], 0.276 µM in assay [9] and 0.181 µM in assay [10]. The TGI is 1.03 µM in assay [1]; greater than 31 µM in assay [2]; 0.403 µM in [3]; 1.12 µM in assay [4]; 0.741 µM in [5]; 2.16 µM in assay [6]. For the same compound, the TGI was greater than 22.1 µM in assay [7], 1.92 µM in [8], 1.91 µM in assay [9] and 0.82 µM in [10].
